PubChem BioAssay (NCI)
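Growth conditions: 96-well plates. Treatment: test compound, 48 hours, 5 concentrations. Analysis: linear interpolation between bracketing concentrations; unreached endpoints set to highest concentration. At the TGI there is no net growth.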

Key:
Test in all cases: NCI tumour cell line growth inhibition, 48 h
[1] = tested on: SF-268 CNS
[2] = tested on: PC-3 prostate
[3] = tested on: DU-145 prostate
[4] = tested on: OVCAR-4 ovarian
[5] = tested on: A549 NSCLC
[6] = tested on: COLO 205 colon
[7] = tested on: OVCAR-5 ovarian
[8] = tested on: MALME-3M melanoma
[9] = tested on: HL-60(TB) leukemia
[10] = tested on: NCI-H226 lung
[11] = tested on: SNB-19 CNS
[12] = tested on: CCRF-CEM leukemia
[13] = tested on: HCT-15 colon
[14] = tested on: UACC-62 melanoma
[15] = tested on: U251 CNS
[16] = tested on: MCF7 breast
[17] = tested on: MOLT-4 leukemia
[18] = tested on: SK-OV-3 ovarian
[19] = tested on: SW-620 colon
[20] = tested on: SN12C renal
[21] = tested on: BT-549 breast
[22] = tested on: T-47D breast
[23] = tested on: HT29 colon
[24] = tested on: UACC-257 melanoma
[25] = tested on: MDA-MB-435
[26] = tested on: KM12 colon
[27] = tested on: MDA-N
[28] = tested on: OVCAR-8 ovarian
[29] = tested on: TK-10 renal
[30] = tested on: M14 melanoma
[31] = tested on: MDA-MB-231 breast
[32] = tested on: NCI-H522 lung
[33] = tested on: OVCAR-3 ovarian
[34] = tested on: UO-31 renal
[35] = tested on: RXF 393 renal
[36] = tested on: NCI-H23 lung
[37] = tested on: HOP-62 NSCLC
[38] = tested on: HCT-116 colon
[39] = tested on: SR leukemia
[40] = tested on: ACHN renal
[41] = tested on: NCI-H460 lung
[42] = tested on: SF-539 CNS
[43] = tested on: HCC-2998 colon
[44] = tested on: SK-MEL-5 melanoma
[45] = tested on: HS 578T breast
[46] = tested on: K-562 leukemia
[47] = tested on: SNB-75 CNS
[48] = tested on: LOX IMVI melanoma
[49] = tested on: CAKI-1 renal
[50] = tested on: NCI/ADR-RES ovarian
[51] = tested on: 786-0 renal
[52] = tested on: EKVX NSCLC
[53] = tested on: SK-MEL-28 melanoma
[54] = tested on: RPMI-8226 leukemia
[55] = tested on: SF-295 CNS
[56] = tested on: IGROV1 ovarian
[57] = tested on: SK-MEL-2 melanoma
[58] = tested on: HOP-92 NSCLC
[59] = tested on: A498 renal

Measured: TGI

O=C1NC2(CCNCC2)Oc2ccccc21
not listed: [59]
> 100 µM: all other assays above

COc1cccc(C23CCN(C)C(CC(O)C2)C3)c1OC (stereo not drawn)
not listed: [35] | [41] | [43] | [47]
> 100 µM: all other assays above
